Activity calls are given as the source filed them. The rule behind the calls is not given here. Peptide text beside a SMILES is read from it.
Tests used:
[1] = Solubility of compound in guanidine hydrochloride at 1 mg/ml by RP-HPLC analysis; type: physicochemical
[2] = Solubility of compound in water at 1 nmol by RP-HPLC analysis; type: physicochemical; conditions: buffer
[3] = Retention time of the compound by RP-HPLC analysis; type: physicochemical
[4] = system: Priestia megaterium; test: Antimicrobial activity against Bacillus megaterium CGMCC 1.0459 assessed as lethal concentration; type: functional
[5] = system: Bacillus subtilis; test: Antimicrobial activity against Bacillus subtilis CGMCC 1.2428 assessed as lethal concentration; type: functional
[6] = system: Curtobacterium luteum; test: Antimicrobial activity against Curtobacterium luteum assessed as lethal concentration; type: functional
[7] = system: Lysinibacillus fusiformis; test: Antimicrobial activity against Lysinibacillus fusiformis assessed as lethal concentration; type: functional
[8] = system: Micrococcus luteus; test: Antimicrobial activity against Micrococcus luteus CGMCC 1.0290 assessed as lethal concentration; type: functional
[9] = system: Staphylococcus; test: Antimicrobial activity against methicillin-resistant coagulase negative Staphylococcus P1369 assessed as lethal concentration; type: functional
[10] = system: Staphylococcus aureus; test: Antimicrobial activity against methicillin-resistant Staphylococcus aureus P1374 assessed as lethal concentration; type: functional
[11] = system: Staphylococcus aureus; test: Antimicrobial activity against penicillin-resistant Staphylococcus aureus P1383 assessed as lethal concentration; type: functional
[12] = system: Staphylococcus aureus; test: Antimicrobial activity against methicillin-resistant Staphylococcus aureus P1386 assessed as lethal concentration; type: functional
[13] = system: Staphylococcus epidermidis; test: Antimicrobial activity against penicillin-resistant Staphylococcus epidermidis P1389 assessed as lethal concentration; type: functional
[14] = system: Staphylococcus aureus; test: Antimicrobial activity against Staphylococcus aureus J685 assessed as lethal concentration; type: functional
[15] = system: Staphylococcus warneri; test: Antimicrobial activity against Staphylococcus warneri ATCC 1.2824 assessed as lethal concentration; type: functional
[16] = system: Streptococcus mutans; test: Antimicrobial activity against Streptococcus mutans ATCC 1.2499 assessed as lethal concentration; type: functional
[17] = system: Streptococcus salivarius; test: Antimicrobial activity against Streptococcus salivarius ATCC 1.2498 assessed as lethal concentration; type: functional
[18] = system: Streptococcus sanguinis; test: Antimicrobial activity against Streptococcus sanguinis ATCC 1.2497 assessed as lethal concentration; type: functional
[19] = system: Alcaligenes faecalis; test: Antimicrobial activity against Alcaligenes faecalis CGMCC 1.1837 assessed as lethal concentration; type: functional
[20] = system: Escherichia coli; test: Antimicrobial activity against Escherichia coli J16c assessed as lethal concentration; type: functional
[21] = system: Escherichia coli; test: Antimicrobial activity against Escherichia coli J23a assessed as lethal concentration; type: functional
[22] = system: Escherichia coli; test: Antimicrobial activity against Escherichia coli J14b assessed as lethal concentration; type: functional
[23] = system: Escherichia coli; test: Antimicrobial activity against Escherichia coli G2b assessed as lethal concentration; type: functional
[24] = system: Escherichia coli; test: Antimicrobial activity against Escherichia coli J45b assessed as lethal concentration; type: functional
[25] = system: Escherichia coli; test: Antimicrobial activity against Escherichia coli DH5alpha assessed as lethal concentration; type: functional
[26] = system: Pseudomonas aeruginosa; test: Antimicrobial activity against Pseudomonas aeruginosa O1 assessed as lethal concentration; type: functional
[27] = system: Pseudomonas aeruginosa; test: Antimicrobial activity against Pseudomonas aeruginosa assessed as lethal concentration; type: functional
[28] = system: Pseudomonas aeruginosa; test: Antimicrobial activity against Pseudomonas aeruginosa FRD1 assessed as lethal concentration; type: functional
[29] = system: Pseudomonas aeruginosa; test: Antimicrobial activity against Pseudomonas aeruginosa 374 assessed as lethal concentration; type: functional
[30] = system: Pseudomonas aeruginosa; test: Antimicrobial activity against Pseudomonas aeruginosa 11082603 assessed as lethal concentration; type: functional
[31] = system: Pseudomonas aeruginosa; test: Antimicrobial activity against Pseudomonas aeruginosa 11082616 assessed as lethal concentration; type: functional
[32] = system: Pseudomonas aeruginosa; test: Antimicrobial activity against Pseudomonas aeruginosa 11092304 assessed as lethal concentration; type: functional
[33] = system: Pseudomonas aeruginosa; test: Antimicrobial activity against Pseudomonas aeruginosa 11092618 assessed as lethal concentration; type: functional
[34] = system: Pseudomonas aeruginosa; test: Antimicrobial activity against Pseudomonas aeruginosa DH assessed as lethal concentration; type: functional
[35] = system: Pseudomonas aeruginosa; test: Antimicrobial activity against Pseudomonas aeruginosa QT1 assessed as lethal concentration; type: functional
[36] = system: Ralstonia solanacearum; test: Antimicrobial activity against Ralstonia solanacearum assessed as lethal concentration; type: functional
[37] = system: Salmonella enterica; test: Antimicrobial activity against Salmonella enterica ATCC 14028 assessed as lethal concentration; type: functional
[38] = system: Stenotrophomonas maltophilia; test: Antimicrobial activity against Stenotrophomonas maltophilia CGMCC 1.1788 assessed as lethal concentration; type: functional
[39] = system: Geotrichum candidum; test: Antifungal activity against Geotrichum candidum CCTCC AY 93038 assessed as lethal concentration; type: functional
[40] = system: Komagataella pastoris; test: Antifungal activity against Pichia pastoris X33 assessed as lethal concentration; type: functional
[41] = system: Streptococcus mutans; test: Antimicrobial activity against Streptococcus mutans ATCC 1.2499 at 1 nmol relative to control; type: functional, organism-based
[42] = system: Staphylococcus; test: Antimicrobial activity against methicillin-resistant coagulase negative Staphylococcus P1369 at 0.25 to 1 nmol; type: functional, organism-based; conditions: dose 0.25-1 nmol
[43] = system: Salmonella enterica; test: Antimicrobial activity against Salmonella enterica ATCC 14028 at 0.25 to 1 nmol; type: functional, organism-based; conditions: dose 0.25-1 nmol
[44] = Stability of compound in PBS at pH 7 measured after 3 days; type: physicochemical; conditions: buffer, pH 7, 72 h; time 3 day
[45] = system: Cell membrane; test: Induction of membrane disruption in Staphylococcus epidermidis incubated for 90 mins by SEM analysis; type: cell membranes
[46] = system: Cell membrane; test: Induction of membrane disruption in Staphylococcus epidermidis incubated for 30 mins by transmission electron microscopic analysis; type: cell membranes
[47] = system: Cell membrane; test: Induction of cytoplasmic membrane disruption in Bacillus megaterium assessed as increase in fluorescence intensity by NPN uptake assay; type: cell membranes; conditions: Priestia megaterium
[48] = system: Cell membrane; test: Disruption of outer membrane integrity in […] by NPN uptake assay; type: cell membranes
[49] = system: Micrococcus luteus; test: Antimicrobial activity against Micrococcus luteus in presence of NaCl; type: functional, organism-based
[50] = system: Micrococcus luteus; test: Antimicrobial activity against Micrococcus luteus in presence of human serum; type: functional, organism-based
[51] = system: Erythrocyte; test: Hemolytic activity in mouse erythrocytes assessed as hemolysis at 100 uM; type: toxicity, cell-based
[52] = system: HEK293; test: Cytotoxicity against HEK293 cells assessed as reduction in cell viability at 200 microg/ml incubated for 48 hrs by CCK-8 assay; type: toxicity, cell-based; conditions: human, hek293, 48 h, dose 200 µg/ml

## CC[C@H](C)[C@H](NC(=O)[C@H](CCCCN)NC(=O)[C@H](CC(N)=O)NC(=O)[C@H](CC(N)=O)NC(=O)[C@H](CS)NC(=O)[C@H](Cc1ccc(O)cc1)NC(=O)[C@H](CS)NC(=O)[C@@H](NC(=O)[C@H](C)N)[C@@H](C)O)C(=O)N[C@@H](CS)C(=O)N[C@H](C(=O)N[C@@H](CS)C(=O)N[C@@H](CCCNC(=N)N)C(=O)N[C@@H](CCCNC(=N)N)C(N)=O)C(C)C (H-ATCYCNNKICVCRR-NH2)
[1]
  solubility: Soluble
[2]
  solubility: Soluble
[3]
  Retention_time: 14.5 min
[4]
  LD: 1.23 µM
[5]
  LD: 2.6 µM
[6]
  LD: 0.87 µM
[7]
  LD: 0.63 µM
[8]
  LD: 2.6 µM
[9]
  LD: 0.27 µM
[10]
  LD: 4.62 µM
[11]
  LD: 1.17 µM
[12]
  LD: 3.46 µM
[13]
  LD: 12.79 µM
[14]
  LD: 7.01 µM
[15]
  LD: 4.17 µM
[16]
  LD: 3.22 µM
[17]
  LD: 2.51 µM
[18]
  LD: 2.58 µM
[19]
  LD: 10.4 µM
[20]
  LD: 7.86 µM
[21]
  LD: 7.86 µM
[22]
  LD: 12.9 µM
[23]
  LD: 12.9 µM
[24]
  LD: 7.14 µM
[25]
  LD: 21.42 µM
[26]
  LD: 21.42 µM
[27]
  LD: 7.32 µM
[28]
  LD: 21.95 µM
[29]
  LD: 35.1 µM
[30]
  LD: 15.38 µM
[31]
  LD: 35.1 µM
[32]
  LD: 43.43 µM
[33]
  LD: 75.89 µM
[34]
  LD: 49.32 µM
[35]
  LD: 22.87 µM
[36]
  LD: 17.5 µM
[37]
  LD: 4.88 µM
[38]
  LD: 21.72 µM
[39]
  LD: 9.62 µM
[40]
  LD: 7.86 µM
[41]
  Activity: inactive
[42]
  Activity: Active
[43]
  Activity: Active
[44]
  Stability: Stable
[45]
  Activity: Active
[46]
  Activity: Active
[47]
  Activity: Active
[48]
  Activity: Active
[49]
  Activity: Active
[50]
  Activity: Active
[51]
  Activity: Non-Toxic
[52]
  Activity: Non-Toxic

Reference: ChEMBL document CHEMBL5528052, “Single Deletion Unmasks Hidden Anti-Gram-Negative Bacterial Activity of an Insect Defensin-Derived Peptide” (J Med Chem, 2024)
